Results on two compounds are retold here after PMC3095316, “Differential expression pattern of an acidic 9/13-lipoxygenase in flower opening and senescence and in leaf response to phloem feeders in the tea plant” (BMC Plant Biology, 2010).

The structures appear in SMILES notation. Where two headings read alike, the source gives them in different places.

This assay addresses T1, CsLOX1 (9/13-CsLOX1) (Camellia sinensis, UniProt A8W7J7).
T1 construct: gene lox1
T1 sequence (A8W7J7 1-861): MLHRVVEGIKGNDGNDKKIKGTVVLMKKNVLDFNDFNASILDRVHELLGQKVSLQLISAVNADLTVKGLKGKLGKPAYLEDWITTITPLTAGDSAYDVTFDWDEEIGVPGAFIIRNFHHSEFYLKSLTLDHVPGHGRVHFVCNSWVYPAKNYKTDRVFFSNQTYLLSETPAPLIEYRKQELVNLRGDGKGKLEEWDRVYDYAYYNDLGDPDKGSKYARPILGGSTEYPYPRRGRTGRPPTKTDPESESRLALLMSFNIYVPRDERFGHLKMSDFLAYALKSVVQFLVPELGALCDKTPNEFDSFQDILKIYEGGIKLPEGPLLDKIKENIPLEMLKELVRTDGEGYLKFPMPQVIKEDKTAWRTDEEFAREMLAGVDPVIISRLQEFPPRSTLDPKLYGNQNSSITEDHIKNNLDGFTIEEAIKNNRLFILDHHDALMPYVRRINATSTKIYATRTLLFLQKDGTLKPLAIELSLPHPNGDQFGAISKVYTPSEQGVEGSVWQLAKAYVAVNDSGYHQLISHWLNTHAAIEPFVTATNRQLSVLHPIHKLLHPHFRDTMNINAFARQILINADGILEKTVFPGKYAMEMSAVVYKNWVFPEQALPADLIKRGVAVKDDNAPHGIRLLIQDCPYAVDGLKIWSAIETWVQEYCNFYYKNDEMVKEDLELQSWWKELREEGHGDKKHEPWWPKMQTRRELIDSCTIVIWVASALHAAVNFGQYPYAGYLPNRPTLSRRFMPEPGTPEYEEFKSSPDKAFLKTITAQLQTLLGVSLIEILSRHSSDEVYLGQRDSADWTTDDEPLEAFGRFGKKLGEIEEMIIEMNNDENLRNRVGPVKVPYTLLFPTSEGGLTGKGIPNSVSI
The settings on record: co-substrate O2, substrate 75-600 μM, pH and temperature of the kinetics not stated (optimum pH 3.6, 25°C).

For `CC/C=C\C/C=C\C/C=C\CCCCCCCC(=O)O` [linolenic acid], the Km (linolenic acid isomer not printed (alpha taken from jasmonate context)) is 32.9 µM.
Regarding `CCCCC/C=C\C/C=C\CCCCCCCC(=O)O` [linoleic acid], the Km is 141 µM.

As a reminder, the Km is the substrate concentration at which the rate is half of its maximum.
